Measurements from ChEMBL document CHEMBL4616637, “Proximicins F and G and Diproximicin A: Aminofurans from the Marine-Derived Verrucosispora sp. SCSIO 40062 by Overexpression of PPtase Genes” (J Nat Prod, 2020).
Converted amounts (≈) assume the structure as drawn. The source made the active and inactive calls. The calls are words filed in the database; no cut-off is given here.

Tests used:
[1] = molecular target: T1, Tyrosinase (Homo sapiens) (UniProt P14679); experiment: Inhibition of tyrosinase (unknown origin) at 20 uM using L-DOPA as substrate
T1 sequence (whole entry): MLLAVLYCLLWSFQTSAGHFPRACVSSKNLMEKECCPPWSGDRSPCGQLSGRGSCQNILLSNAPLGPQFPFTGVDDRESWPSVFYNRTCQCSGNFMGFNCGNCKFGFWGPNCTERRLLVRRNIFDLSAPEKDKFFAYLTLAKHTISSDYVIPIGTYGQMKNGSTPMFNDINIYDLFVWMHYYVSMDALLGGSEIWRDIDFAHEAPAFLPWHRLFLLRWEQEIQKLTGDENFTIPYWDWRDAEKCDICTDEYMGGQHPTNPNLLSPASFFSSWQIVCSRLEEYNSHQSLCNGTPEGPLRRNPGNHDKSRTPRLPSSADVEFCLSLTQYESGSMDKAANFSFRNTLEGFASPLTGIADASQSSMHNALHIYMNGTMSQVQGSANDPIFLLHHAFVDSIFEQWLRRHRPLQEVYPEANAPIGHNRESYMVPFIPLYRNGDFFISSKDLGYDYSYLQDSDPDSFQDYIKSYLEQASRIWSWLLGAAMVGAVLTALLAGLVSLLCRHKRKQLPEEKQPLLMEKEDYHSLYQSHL

[2] = tested on: Staphylococcus aureus; experiment: Antibacterial activity against methicillin-resistant Staphylococcus aureus shhsA1 by CLSI based susceptibility test method; format: functional
[3] = tested on: MCF7; experiment: Cytotoxicity against human MCF7 cells assessed as reduction in cell viability after 48 hrs by SRB assay; format: functional, cell-based; settings: MCF7, 48 h
[4] = molecular target: Acetylcholinesterase (Electrophorus electricus) (UniProt O42275); experiment: Inhibition of electric eel AChE at 20 uM using acetylthiocholine iodide as substrate incubated for 6 mins by Ellman's method
Acetylcholinesterase (Electrophorus electricus), sequence (O42275 24-633 limits assumed): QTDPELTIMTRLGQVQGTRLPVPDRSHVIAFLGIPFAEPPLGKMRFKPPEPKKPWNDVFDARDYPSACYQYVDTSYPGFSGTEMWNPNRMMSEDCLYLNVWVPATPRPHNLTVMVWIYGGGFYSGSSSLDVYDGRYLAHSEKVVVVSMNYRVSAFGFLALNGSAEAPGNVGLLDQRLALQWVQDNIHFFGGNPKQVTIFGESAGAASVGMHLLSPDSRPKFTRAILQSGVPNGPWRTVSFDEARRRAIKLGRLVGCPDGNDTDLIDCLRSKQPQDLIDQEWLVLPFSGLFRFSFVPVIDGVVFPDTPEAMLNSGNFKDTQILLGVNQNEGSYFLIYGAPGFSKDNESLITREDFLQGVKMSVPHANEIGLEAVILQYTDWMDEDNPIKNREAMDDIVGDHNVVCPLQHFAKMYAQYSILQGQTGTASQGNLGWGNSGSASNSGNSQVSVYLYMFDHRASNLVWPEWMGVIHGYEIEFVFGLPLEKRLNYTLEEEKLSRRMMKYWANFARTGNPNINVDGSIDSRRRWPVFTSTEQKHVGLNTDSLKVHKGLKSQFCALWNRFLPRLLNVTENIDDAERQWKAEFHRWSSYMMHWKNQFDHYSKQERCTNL

[5] = tested on: SF-268; experiment: Cytotoxicity against human SF268 cells assessed as reduction in cell viability after 48 hrs by SRB assay; format: functional, cell-based; settings: SF-268, 48 h
[6] = tested on: A549; experiment: Cytotoxicity against human A549 cells assessed as reduction in cell viability after 48 hrs by SRB assay; format: functional, cell-based; settings: A549, 48 h
[7] = tested on: Staphylococcus aureus; experiment: Antibacterial activity against Staphylococcus aureus ATCC 29213 by CLSI based susceptibility test method; format: functional
[8] = tested on: HepG2; experiment: Cytotoxicity against human HepG2 cells assessed as reduction in cell viability after 48 hrs by SRB assay; format: functional, cell-based; settings: HepG2, 48 h
[9] = tested on: Bacillus subtilis; experiment: Antibacterial activity against Bacillus subtilis 1064 by CLSI based susceptibility test method; format: functional
[10] = tested on: Micrococcus luteus; experiment: Antibacterial activity against Micrococcus luteus SCSIO ML01 by CLSI based susceptibility test method; format: functional
[11] = species on record: Homo sapiens; experiment: Inhibition of alpha-glucosidase (unknown origin) at 20 uM using pNPG as substrate preincubated for 15 mins followed by substrate addition and measured after 15 mins

| Compound | inhibition [1] | MIC [2] | IC50 [3] | inhibition [4] | IC50 [5] | IC50 [6] | MIC [7] | IC50 [8] | MIC [9] | MIC [10] | inhibition [11] |
| --- | --- | --- | --- | --- | --- | --- | --- | --- | --- | --- | --- |
| CNC(=O)c1cc(NC(=O)c2cc(NC(=O)OC)co2)co1 | inactive | > 64 µg/mL | > 10 µM | inactive | > 10 µM | > 10 µM | > 64 µg/mL | > 10 µM | > 64 µg/mL | > 64 µg/mL | inactive |
| COC(=O)Nc1coc(C(=O)Nc2coc(C(=O)NCCCCCNC(=O)c3cc(NC(=O)c4cc(NC(=O)OC)co4)co3)c2)c1 | inactive | > 64 µg/mL | > 10 µM | inactive | > 10 µM | > 10 µM | > 64 µg/mL | > 10 µM | > 64 µg/mL | > 64 µg/mL | inactive |
| COC(=O)Nc1coc(C(=O)Nc2coc(C(=O)NCCc3ccccc3)c2)c1 | inactive | > 64 µg/mL | – | inactive | – | – | > 64 µg/mL | – | 32 µg/mL (≈ 80.5 µM) | > 64 µg/mL | inactive |
| CC1(C)S[C@@H]2[C@H](NC(=O)[C@H](N)c3ccccc3)C(=O)N2[C@H]1C(=O)O [AMPICILLIN] | – | > 64 µg/mL | – | – | – | – | 0.25 µg/mL (≈ 0.715 µM) | – | 0.25 µg/mL (≈ 0.715 µM) | 0.5 µg/mL (≈ 1.43 µM) | – |
| C[S+](C)[O-] [DIMETHYL SULFOXIDE] | – | > 64 µg/mL | – | – | – | – | > 64 µg/mL | – | > 64 µg/mL | > 64 µg/mL | – |
| COC(=O)Nc1coc(C(=O)Nc2coc(C(=O)NCCc3ccc(O)cc3)c2)c1 [PROXIMICIN B] | inactive | 16 µg/mL (≈ 38.7 µM) | > 10 µM | inactive | > 10 µM | > 10 µM | 16 µg/mL (≈ 38.7 µM) | > 10 µM | 8 µg/mL (≈ 19.4 µM) | > 64 µg/mL | inactive |
| COC(=O)Nc1coc(C(=O)Nc2coc(C(=O)NCCc3c[nH]c4ccccc34)c2)c1 [PROXIMICIN C] | inactive | > 64 µg/mL | > 10 µM | inactive | > 10 µM | > 10 µM | > 64 µg/mL | > 10 µM | > 64 µg/mL | > 64 µg/mL | inactive |
| COc1cc(Cc2cnc(N)nc2N)cc(OC)c1OC [TRIMETHOPRIM] | – | > 64 µg/mL | – | – | – | – | 2 µg/mL (≈ 6.89 µM) | – | 0.25 µg/mL (≈ 0.861 µM) | 2 µg/mL (≈ 6.89 µM) | – |
| CN[C@H](CC(C)C)C(=O)N[C@H]1C(=O)N[C@@H](CC(N)=O)C(=O)N[C@H]2C(=O)N[C@H]3C(=O)N[C@H](C(=O)N[C@H](C(=O)O)c4cc(O)cc(O)c4-c4cc3ccc4O)[C@H](O)c3ccc(c(Cl)c3)Oc3cc2cc(c3O[C@@H]2O[C@H](CO)[C@@H](O)[C@H](O)[C@H]2O[C@H]2C[C@](C)(N)[C@H](O)[C@H](C)O2)Oc2ccc(cc2Cl)[C@H]1O [VANCOMYCIN] | – | – | – | – | – | – | – | – | 0.5 µg/mL (≈ 0.345 µM) | 0.25 µg/mL (≈ 0.173 µM) | – |
